# From ChEMBL document CHEMBL1152092, “A potent long-acting imidazole-5-acrylic acid angiotensin II AT-1 receptor antagonist” (Bioorg Med Chem Lett, 1994)
# Key:
# [1] = target: T1, Type-1 angiotensin II receptor (Homo sapiens, UniProt P30556); experiment: Tested for Angiotensin II receptor, type 1 affinity in the absence of BSA
# T1 sequence (P30556 whole entry): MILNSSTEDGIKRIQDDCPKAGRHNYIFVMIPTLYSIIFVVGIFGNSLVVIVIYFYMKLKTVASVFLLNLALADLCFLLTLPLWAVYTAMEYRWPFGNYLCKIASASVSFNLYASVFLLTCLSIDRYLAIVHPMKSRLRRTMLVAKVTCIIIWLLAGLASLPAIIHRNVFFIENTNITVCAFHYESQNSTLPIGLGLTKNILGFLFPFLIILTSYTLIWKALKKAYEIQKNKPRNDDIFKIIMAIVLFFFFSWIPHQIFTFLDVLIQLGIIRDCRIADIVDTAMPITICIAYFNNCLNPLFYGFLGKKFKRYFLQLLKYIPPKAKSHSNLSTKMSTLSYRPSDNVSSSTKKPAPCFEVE
# Canis familiaris [2] = experiment: Tested for po dose required to inhibit the pressor effect up to 20 hr in Angiotensin I infused dog; format: functional, Canis lupus familiaris
# [3] = target: T1, Type-1 angiotensin II receptor; experiment: Tested for Angiotensin II receptor, type 1 affinity in the presence of 0.25% BSA
# Rattus norvegicus [4] = species: Rattus norvegicus; experiment: Time required for effect of drug after washout of rat adrenal cortical membranes; format: functional
# Oryctolagus cuniculus [5] = species: Oryctolagus cuniculus; experiment: Tested for inhibition of AII-induced vasoconstriction of rabbit aorta measured at 30% inhibition; format: functional
# Rattus norvegicus [6] = experiment: Tested for the dose that produced a 50% inhibition of the pressor response to AII in conscious normotensive rats administered intraduodenally; format: functional; conditions: intraduodenal, read-out: ID50 (the source's name)
# Canis familiaris [7] = experiment: Tested for lowering of mean arterial blood pressure at a dose of 10 mg/kg id, in 2-kidney, 1-clip Goldblatt renin dependent hypertensive dog for more than 12 hours; format: functional, Canis lupus familiaris
# [8] = target: T2, Type-1 angiotensin II receptor B (Rattus norvegicus, UniProt P29089); experiment: Tested for inhibition of [125I]- AII specific binding to rat mesenteric arteries, expressed as IC50
# T2 sequence (P29089 whole entry): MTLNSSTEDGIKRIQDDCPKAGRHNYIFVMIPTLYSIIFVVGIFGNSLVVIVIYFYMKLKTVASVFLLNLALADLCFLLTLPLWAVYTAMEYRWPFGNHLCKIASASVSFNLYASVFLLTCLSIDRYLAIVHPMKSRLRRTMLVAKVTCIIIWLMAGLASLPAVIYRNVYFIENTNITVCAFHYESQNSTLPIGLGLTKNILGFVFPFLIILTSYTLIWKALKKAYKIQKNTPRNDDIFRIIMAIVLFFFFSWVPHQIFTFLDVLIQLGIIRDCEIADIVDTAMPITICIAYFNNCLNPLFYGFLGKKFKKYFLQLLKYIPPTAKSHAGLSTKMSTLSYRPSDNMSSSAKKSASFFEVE
# Rattus norvegicus [9] = experiment: Tested for the dose that produced a 50% inhibition of the pressor response to AII in conscious normotensive rats administered intravenously; format: functional; conditions: iv, read-out: ID50 (the source's name)
# Rattus norvegicus [10] = experiment: Tested for time for the pressor response to AII to recover 50% of its initial effect after intraduodenal dosing of 10 mg/kg; format: functional, organism-based; parameters: dose 10 mg/kg
# [11] = target: T1, Type-1 angiotensin II receptor; experiment: Tested for binding affinity to Angiotensin II receptor, type 1
# Oryctolagus cuniculus [12] = species: Oryctolagus cuniculus; experiment: Tested for inhibition of AII-induced vasoconstriction of rabbit aorta; format: functional
# Rattus norvegicus [13] = experiment: Tested for time for the pressor response to AII to recover 50% of its initial effect after intraduodenal dosing of 30 mg/kg; format: functional, organism-based; parameters: dose 30 mg/kg
# [14] = target: T1, Type-1 angiotensin II receptor; experiment: Tested for Angiotensin II receptor, type 1 affinity in the presence of 0.25% bovine serum albumin (BSA)
# [15] = target: T1, Type-1 angiotensin II receptor; experiment: Tested for Angiotensin II receptor, type 1 affinity in the absence of bovine serum albumin (BSA)
# Canis familiaris [16] = experiment: Tested for po dose required to inhibit the pressor effect up to 14 hr in Angiotensin I infused dog; format: functional, Canis lupus familiaris
IC50 [8],SMILES,ED50 (Rattus norvegicus [6]),ED50 (Rattus norvegicus [9]),T1/2 (Rattus norvegicus [10]),Kb (Oryctolagus cuniculus [12]),other results
1.04 nM,CCCCc1ncc(/C=C(\Cc2cccs2)C(=O)O)n1Cc1ccc(C(=O)O)c(Cl)c1,16 mg/kg,0.12 mg/kg,–,0.13 nM,T1/2 (Rattus norvegicus [13]): 1.8 h
1.45 nM,CCCCc1ncc(/C=C(\Cc2cccs2)C(=O)O)n1Cc1ccc(C(=O)O)cc1Cl,2.4 mg/kg,0.06 mg/kg,2.5 h,0.02 nM,–

# The next lines start with the compound.
SMILES,IC50 [8],ED50 (Rattus norvegicus [6]),ED50 (Rattus norvegicus [9]),T1/2 (Rattus norvegicus [10]),Kb (Oryctolagus cuniculus [12]),other results
CCCCc1ncc(/C=C(\Cc2cccs2)C(=O)O)n1Cc1ccc(C(=O)O)c2ccccc12,11.8 nM,3.8 mg/kg,0.05 mg/kg,2.42 h,–,IC50 [1]: 1.2 nM; Dose (Canis familiaris [2]): 10 mg/kg; IC50 [3]: 31 nM; TIME (Rattus norvegicus [4]): 3 h; Kb (Oryctolagus cuniculus [5]): 0.059 nM; Mean blood pressure (Canis familiaris [7]): 35 mmHg
CCCCc1ncc(/C=C(\Cc2cccs2)C(=O)O)n1Cc1ccccc1,–,–,–,–,–,IC50 [11]: 440 nM
CCCCc1ncc(/C=C(\Cc2cccs2)C(=O)O)n1Cc1cc(Cl)c(C(=O)O)cc1Cl,35.4 nM,–,0.68 mg/kg,–,1.58 nM,–
CCCCc1ncc(/C=C(\Cc2cccs2)C(=O)O)n1Cc1ccccc1Cl,–,–,–,–,–,IC50 [11]: 4530 nM
CCCCc1ncc(/C=C(\Cc2cccs2)C(=O)O)n1Cc1ccc(C(=O)O)c(Cl)c1Cl,0.16 nM,5.4 mg/kg,0.04 mg/kg,1.6 h,0.18 nM,–
CCCCc1ncc(/C=C(\Cc2cccs2)C(=O)O)n1Cc1ccc(C(=O)O)cc1 [EPROSARTAN],–,5.5 mg/kg,0.08 mg/kg,1.42 h,0.21 nM,IC50 [14]: 7.3 nM; IC50 [15]: 2 nM; TIME (Rattus norvegicus [4]): 0.5 h; Mean blood pressure (Canis familiaris [7]): 35 mmHg; Dose (Canis familiaris [16]): 10 mg/kg
